Measurements from paper PMC10660337, “Mutate and Conjugate: A Method to Enable Rapid In-Cell Target Validation” (ACS Chemical Biology, 2023).
Several values for one entry are separate records, joined by “and”; a condition that tells them apart may be missing. Identical values can stand only once.

What was measured:
[1] = test system: T1, BRD4(1)^L94C transiently expressed in HEK293T cells; test: OXFBD04 (3) competition assay in cells; assay type: cell-based, human; settings: OXFBD04 30 min preincubation, then probe 10 µM for 1 h
T1 construct: the L94C mutation in the first bromodomain of BRD4 [BRD4(1)]; StrepII; expressed in transfected cells; host or cells: HEK293T
Method: Compound engagement with BRD4(1)^L94C was further validated by using an immunoprecipitation (IP) assay (Figure S22). Here, transfected HEK293T cells expressing StrepII-tagged BRD4(1)^L94C or StrepII-tagged BRD4(1)^WT were incubated with compound 42 before being lysed. The StrepII-tagged bromodomains were then pulled down using anti-StrepII antibodies, and the samples were separated by SDS-PAGE for analysis. […]
(§1) reaction mix was taken and 8 µL of Lamelli buffer added, and the samples denatured by heating at 95 °C for 10 min. Samples were separated by gel electrophoresis on NuPAGE™ 4–12%, Bis-Tris precast polyacrylamide gels (Thermofisher). Following electrophoresis, gels were stained for 15 min with InstantBlueTM Coomasie® stain (Abcam), destained, and imaged using Bio-rad molecular imager.
Bio-rad Image Lab 6.1 was used to process the data.
In-cell target engagement
In-cell labeling by clickable probes […]
Gels were imaged for fluorescence using Bio-rad molecular imager and then stained for 15 min with InstantBlueTM Coomasie® stain (Abcam), destained, and imaged using Bio-rad molecular imager. […]
Transfected HEK293T cells at ~90% confluency were incubated for 30 min with a DMSO control or varying concentrations of OXFBD04 diluted in Opti-MEM media. […] Cells were then harvested, processed, and analysed using the previously described protocol above. […]

BRD4(1)^L94C [2] = molecular target: T2, BRD4(1)^L94C (Homo sapiens, UniProt O60885, L94C); test: Fluorescent labeling of purified protein (CuAAC with TAMRA-PEG3-azide, in-gel fluorescence); assay type: binding; settings: 50 μM probe, 10 μM protein, 4 h, 37 °C, then CuAAC 1 h
T2 construct: Characterization of His6-BRD4(1)L94C; made in house; host or cells: E. coli BL21 (DE3)
Method: When 28, 29, 30, and 42 were incubated with either purified BRD4(1)^L94C or BRD4(1)^WT and subjected to a copper(I)-catalyzed alkyne–azide click reaction (CuAAC) reaction with the fluorescent TAMRA-PEG3-azide dye, all clickable probes labeled the mutant protein and could be visualized using fluorescence imaging of a gel (Figure 6).
Figure 6 Clickable probes 28, 29, 30, and 42 covalently label BRD4(1)^L94C and undergo a subsequent CuAAC reaction with TAMRA-PEG3 azide to fluorescently label the protein, as shown by in-gel fluorescence imaging. Compounds 28, 29, 30, 41, and 42 (50 μM) were incubated with purified BRD4(1)^L94C or BRD4(1)^WT (10 μM) for 4 h at 37 °C, followed by CuAAC reaction with TAMRA-PEG3 azide for 1 h and separation of components by SDS-PAGE. For all compounds other than 30, only labeling of BRD4(1)^L94C was observed. […]
Fluorescent labeling of purified proteins
Assays were performed in 1.5 mL Eppendorf tubes at 37 °C, and gently shaken, unless otherwise stated.
The desired click probe (50 µM) was incubated with protein (10 µM) in protein LCMS buffer for 4 h, after which TAMRA-PEG3-Azide (200 µM), TCEP·HCl (1 mM), TBTA (100 µM), and CuSO4 (1 mM) were added and incubated for a further 1 h at room temperature in the dark. A 25 µL sample of the […]
as §1
Bio-rad Image Lab 6.1 was used to process the data. […]
InstantBlueTM Coomasie® stain (Abcam), destained, and imaged using Bio-rad molecular imager. […]
MEM media. Cells were then harvested and lysed using the previously described protocol above. […]

BRD4(1)^L94C [3] = molecular target: T2, BRD4(1)^L94C; test: Protein LCMS labeling assay 1; assay type: binding
Method: The resulting library of 22 fragments was screened for BRD4(1)^L94C binding at a concentration of 50 μM using a protein LCMS assay (referred to as “labeling assay 1”). […] To assess the selectivity of the fragments for the labeling of C94, hits were also screened against BRD4(1)^WT under the same conditions. […] The acrylamide-based fragment, 12, labeled 98% of BRD4(1)^L94C after 4 h. While 95% of the protein was labeled once, 3% of the protein was labeled twice (Figure 5D). […] Fragment 14, designed by appending a β-dimethylaminomethyl acrylamide to the structure of 12, led to 74% of singly labeled BRD4(1)^L94C after 4 h with no labeling of BRD4(1)^WT observed (Table 1 and Figure 5E). […] However, only 9.9% of labeled BRD4(1)^L94C was observed, substantially lower than the 56% labeling observed for the corresponding 3-methyl regioisomer 10 (Table 1). […]
Assays were performed in 1.5 mL Eppendorf tubes at 37 °C and gently shaken, unless otherwise stated.
Experiments were performed in a protein LCMS assay buffer, with 10 µM protein, and 50 µM of the desired compound with a final DMSO concentration of 0.5% (Table S16). Time points were taken at 0, 1 and 4 h, unless otherwise stated, where a 20 µL sample of the reaction mix was taken, diluted with 100 µL Milli-Q water, and flash frozen. Samples were thawed immediately prior to LCMS analysis on a Waters Xevo G2-S system (Waters) fitted with a ProSwift™ RP-2H PSDVB Reversed Phase HPLC Column (Thermofisher). Data was analysed and processed using MassLynx. The total ion chromatograms (TIC) were extracted (region containing protein) and the summed scans were deconvoluted (using MaxEnt). Covalent labeling was calculated using intensities of the unlabeled and labeled protein (Equation 1). Figures were made using GraphPad Prism 7.0.
Table S16. Buffer composition for protein LCMS.
Buffer Reagent Composition Amount per 1 L
Protein LCMS Assay Buffer HEPES 25 mM 6.0 g
Protein Labelling = Intensity of Labelled Peak × 100

[4] = 50 μM compound, 10 µM protein, 37 °C, mean of three ± s.e.m., ND = not detectable

Structure (SMILES)	BRD4(1)^L94C labeling by probe with increasing concentration of OXFBD04 (3) [1]	Labeling of purified BRD4(1)^L94C, in-gel fluorescence (BRD4(1)^L94C [2])	Labeled Protein (%) L94C 1 h (BRD4(1)^L94C [3]; [4])	Second labeling event, share of total labeled protein (BRD4(1)^L94C [3]; labeling assay 1, 50 μM) [%]	Labeled Protein (%) L94C 4 h (BRD4(1)^L94C [3]; 50 μM compound, 10 µM protein, 37 °C, 4 h, mean of three ± s.e.m., ND = not detectable)
C#CCOc1ccc(-c2c(C)noc2NC(=O)C=C)cc1 [Compound 30]	concomitant reduction	high levels	96 ± 0.2%	3	–
C#CCOc1cc(NC(=O)C=C)ccc1N1CCCC1=O [Compound 42]	decreased levels	high levels	37% and 37 ± 1.2%	–	82% and 82 ± 1.1%
